Molecular target: T1, ΔF508-CFTR (Homo sapiens, UniProt P13569, DEL508-508)
T1 construct: expressed in transfected cells
Assay: Membrane potential optical assay (FRET voltage-sensor dyes, VIPR), identification of potentiator compounds
Assay type: cell-based
Conditions: Table 3, assay not given; for Emax: read-out: % Activity (% Efficacy, relative efficacy)
In short: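 Potentiator screen measured membrane potential via FRET between CC2-DMPE donor and DiSBAC2(3), read on VIPR II. Compound went in with the first addition of chloride-free gluconate bath; cells were ΔF508-CFTR-expressing NIH3T3 mouse fibroblasts, temperature-corrected at 27 °C for 24 h.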

T1 sequence (P13569 with tags, fused parts or gaps DEL508-508): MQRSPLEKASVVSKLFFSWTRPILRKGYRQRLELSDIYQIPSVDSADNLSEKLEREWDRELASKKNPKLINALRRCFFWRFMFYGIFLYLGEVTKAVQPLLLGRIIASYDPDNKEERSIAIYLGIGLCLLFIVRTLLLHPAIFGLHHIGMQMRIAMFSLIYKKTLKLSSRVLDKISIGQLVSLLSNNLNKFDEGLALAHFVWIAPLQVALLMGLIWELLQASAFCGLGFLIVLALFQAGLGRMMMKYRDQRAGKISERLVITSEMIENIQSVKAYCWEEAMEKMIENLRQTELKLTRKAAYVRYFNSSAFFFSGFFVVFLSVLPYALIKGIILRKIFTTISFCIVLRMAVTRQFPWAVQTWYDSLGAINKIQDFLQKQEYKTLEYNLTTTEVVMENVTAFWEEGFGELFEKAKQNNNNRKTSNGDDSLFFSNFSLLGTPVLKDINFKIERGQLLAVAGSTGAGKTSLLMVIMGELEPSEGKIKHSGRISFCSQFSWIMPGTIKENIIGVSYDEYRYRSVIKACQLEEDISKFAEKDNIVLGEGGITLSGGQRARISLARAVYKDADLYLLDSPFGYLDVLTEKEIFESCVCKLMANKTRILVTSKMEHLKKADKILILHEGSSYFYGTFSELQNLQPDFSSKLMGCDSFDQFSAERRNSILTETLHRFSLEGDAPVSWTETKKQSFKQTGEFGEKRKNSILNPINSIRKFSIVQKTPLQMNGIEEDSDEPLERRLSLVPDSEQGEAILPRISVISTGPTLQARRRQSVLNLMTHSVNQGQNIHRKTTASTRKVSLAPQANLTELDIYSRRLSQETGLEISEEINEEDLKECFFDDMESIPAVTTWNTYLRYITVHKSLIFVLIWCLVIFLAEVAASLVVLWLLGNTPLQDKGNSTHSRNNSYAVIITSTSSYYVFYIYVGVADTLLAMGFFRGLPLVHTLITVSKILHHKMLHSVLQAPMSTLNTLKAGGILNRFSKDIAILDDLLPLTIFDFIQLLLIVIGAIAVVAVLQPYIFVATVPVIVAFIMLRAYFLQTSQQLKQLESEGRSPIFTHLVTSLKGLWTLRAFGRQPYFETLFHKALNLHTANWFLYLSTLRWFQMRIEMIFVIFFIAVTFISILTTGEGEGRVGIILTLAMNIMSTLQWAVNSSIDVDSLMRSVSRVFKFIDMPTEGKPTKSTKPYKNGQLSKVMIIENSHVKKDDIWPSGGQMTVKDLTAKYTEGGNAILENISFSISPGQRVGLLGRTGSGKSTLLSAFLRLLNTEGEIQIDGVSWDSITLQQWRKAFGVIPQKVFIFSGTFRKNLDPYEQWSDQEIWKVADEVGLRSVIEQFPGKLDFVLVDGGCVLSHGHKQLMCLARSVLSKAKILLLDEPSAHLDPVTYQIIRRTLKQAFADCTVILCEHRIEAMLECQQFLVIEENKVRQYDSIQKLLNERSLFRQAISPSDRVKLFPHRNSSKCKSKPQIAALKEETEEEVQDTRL

SMILES | Emax | EC50
O=C(Nc1cc(O)c(C2CCCC2)cc1C#CCO)c1c[nH]c2ccccc2c1=O [Compound 512, N-[4-cyclopentyl-5-hydroxy-2-(3-hydroxyprop-1-ynyl)phenyl]-4-oxo-1H-quinoline-3-carboxamide] | 25 to 100% | –
O=C(Nc1ccccc1N1CCCCC1)c1c[nH]c2ccccc2c1=O [Compound 26, 4-oxo-N-[2-(1-piperidyl)phenyl]-1H-quinoline-3-carboxamide] | 25 to 100% | –
Cc1ccc(NC(=O)c2c[nH]c3ccccc3c2=O)cc1N [Compound 167, N-(3-amino-4-methyl-phenyl)-4-oxo-1H-quinoline-3-carboxamide] | 25 to 100% | –
CCOC(=O)Nc1cc(NC(=O)c2c[nH]c3ccccc3c2=O)ccc1C(C)C [Compound 225, [2-isopropyl-5-[(4-oxo-1H-quinolin-3-yl)carbonylamino]phenyl]aminoformic acid ethyl ester] | 25 to 100% | –
COc1ccc2c(=O)c(C(=O)Nc3cc(O)c(C(C)(C)C)cc3C(C)(C)C)c[nH]c2c1 [Compound 583, N-(5-hydroxy-2,4-ditert-butyl-phenyl)-7-methoxy-4-oxo-1H-quinoline-3-carboxamide] | 25 to 100% | –
O=C(Nc1ccccc1SC(F)(F)F)c1c[nH]c2ccccc2c1=O [Compound 371, 4-oxo-N-[2-(trifluoromethylsulfanyl)phenyl]-1H-quinoline-3-carboxamide] | 25 to 100% | –
Cc1cccc2[nH]cc(C(=O)Nc3ccc(N4[C@H](C)CC[C@H]4C)cc3C(F)(F)F)c(=O)c12 [Compound 539, N-(4-((2R,5R)-2,5-dimethylpyrrolidin-1-yl)-2-(trifluoromethyl)phenyl)-5-methyl-4-oxo-1,4-dihydroquinoline-3-carboxamide] | 25 to 100% | –
Cc1cccc(C(C)C)c1NC(=O)c1c[nH]c2ccccc2c1=O [Compound 430, N-(2-isopropyl-6-methyl-phenyl)-4-oxo-1H-quinoline-3-carboxamide] | 25 to 100% | –
CN(C)c1cccc(NC(=O)c2c[nH]c3ccccc3c2=O)c1 [Compound 418, N-(3-dimethylaminophenyl)-4-oxo-1H-quinoline-3-carboxamide] | 25 to 100% | –
CN(Cc1ccccc1NC(=O)c1c[nH]c2ccccc2c1=O)C1CCCCC1 [Compound 354, N-[2-[(cyclohexyl-methyl-amino)methyl]phenyl]-4-oxo-1H-quinoline-3-carboxamide] | 25 to 100% | –
O=C(Nc1cc2[nH]ccc2cc1F)c1c[nH]c2ccc(F)cc2c1=O [Compound 254, 6-fluoro-N-(5-fluoro-1H-indol-6-yl)-4-oxo-1H-quinoline-3-carboxamide] | 25 to 100% | –
CCOCCc1c[nH]c2cc(NC(=O)c3c[nH]c4ccccc4c3=O)ccc12 [Compound 423, N-[3-(2-ethoxyethyl)-1H-indol-6-yl]-4-oxo-1H-quinoline-3-carboxamide] | 25 to 100% | –
CC(C)(C)c1ccccc1Oc1ccccc1NC(=O)c1c[nH]c2ccccc2c1=O [Compound 178, 4-oxo-N-[2-(2-tert-butylphenoxy)phenyl]-1H-quinoline-3-carboxamide] | 25 to 100% | –
O=C(Nc1ccccc1N1CCCC1)c1c[nH]c2ccccc2c1=O [Compound 295, 4-oxo-N-(2-pyrrolidin-1-ylphenyl)-1H-quinoline-3-carboxamide] | 25 to 100% | –
Cc1cc2ccc(NC(=O)c3c[nH]c4ccccc4c3=O)cc2[nH]1 [Compound 104, N-(2-methyl-1H-indol-6-yl)-4-oxo-1H-quinoline-3-carboxamide] | 25 to 100% | –
CC1(C)CCOc2cc(NC(=O)c3c[nH]c4ccccc4c3=O)ccc21 [Compound 204, N-(4,4-dimethylchroman-7-yl)-4-oxo-1H-quinoline-3-carboxamide] | 25 to 100% | –

SMILES | Emax | EC50
CN(c1ccc(F)cc1)S(=O)(=O)c1ccc2[nH]cc(C(=O)Nc3cc(O)c(C(C)(C)C)cc3C(C)(C)C)c(=O)c2c1 [Compound 137, 6-[(4-fluorophenyl)-methyl-sulfamoyl]-N-(5-hydroxy-2,4-ditert-butyl-phenyl)-4-oxo-1H-quinoline-3-carboxamide] | 25 to 100% | –
CC1(c2cc(F)c(NC(=O)c3c[nH]c4ccccc4c3=O)cc2O)CCCCC1 [Compound 92, N-[2-fluoro-5-hydroxy-4-(1-methylcyclohexyl)-phenyl]-4-oxo-1H-quinoline-3-carboxamide] | 25 to 100% | –
CCOC(=O)Nc1cc(NC(=O)c2c[nH]c3ccccc3c2=O)ccc1CC [Compound 298, [2-ethyl-5-[(4-oxo-1H-quinolin-3-yl)carbonylamino]phenyl]aminoformic acid ethyl ester] | 25 to 100% | < 10 µM
Cc1ccc(-c2ccccc2)cc1NC(=O)c1c[nH]c2ccccc2c1=O [Compound 454, N-(2-methyl-5-phenyl-phenyl)-4-oxo-1H-quinoline-3-carboxamide] | < 25% | –
CC(C)c1ccc(NC(=O)c2c[nH]c3ccc(F)cc3c2=O)c(C(F)(F)F)c1 [Compound 557, 6-fluoro-N-[4-isopropyl-2-(trifluoromethyl)phenyl]-4-oxo-1H-quinoline-3-carboxamide] | 25 to 100% | –
CC(C)c1ccc(NC(=O)c2c[nH]c3cc(F)c(F)cc3c2=O)c(C(F)(F)F)c1 [Compound 589, 6,7-difluoro-N-[4-isopropyl-2-(trifluoromethyl)phenyl]-4-oxo-1H-quinoline-3-carboxamide] | 25 to 100% | –
COc1cccc2[nH]cc(C(=O)Nc3ccc4cc[nH]c4c3)c(=O)c12 [Compound 479, N-(1H-indol-6-yl)-5-methoxy-4-oxo-1H-quinoline-3-carboxamide] | 25 to 100% | –
Cc1cc(C)c(NC(=O)c2c[nH]c3ccccc3c2=O)c(C)c1 [Compound 50, 4-oxo-N-(2,4,6-trimethylphenyl)-1H-quinoline-3-carboxamide] | 25 to 100% | –
CN(C)c1cc(NC(=O)c2c[nH]c3ccccc3c2=O)ccc1C(C)(C)C [Compound 485, N-(3-Dimethylamino-4-tert-butyl-phenyl)-4-oxo-1H-quinoline-3-carboxamide] | 25 to 100% | < 10 µM
CC(C)c1c[nH]c2cc(NC(=O)c3c[nH]c4ccccc4c3=O)ccc12 [Compound 357, N-(3-isopropyl-1H-indol-6-yl)-4-oxo-1H-quinoline-3-carboxamide] | 25 to 100% | –
Cc1ccc2c(=O)c(C(=O)Nc3cc4[nH]ccc4cc3C(C)(C)C)c[nH]c2c1 [Compound 704, 7-methyl-4-oxo-N-(5-tert-butyl-1H-indol-6-yl)-1H-quinoline-3-carboxamide] | 25 to 100% | –
CC(C)(C)c1cc(F)c(NC(=O)c2c[nH]c3cccc(F)c3c2=O)cc1O [Compound 610, 5-fluoro-N-(2-fluoro-5-hydroxy-4-tert-butyl-phenyl)-4-oxo-1H-quinoline-3-carboxamide] | 25 to 100% | –
CC(C)c1ccc(-c2cc3cc[nH]c3cc2NC(=O)c2c[nH]c3ccccc3c2=O)cc1 [Compound 342, N-[5-(4-isopropylphenyl)-1H-indol-6-yl]-4-oxo-1H-quinoline-3-carboxamide] | 25 to 100% | –
Cc1cccc2[nH]cc(C(=O)Nc3ccc(N4CC[C@@H](C)C4)cc3C(F)(F)F)c(=O)c12 [Compound 613, (R)-5-methyl-N-(4-(3-methylpyrrolidin-1-yl)-2-(trifluoromethyl)phenyl)-4-oxo-1,4-dihydroquinoline-3-carboxamide] | 25 to 100% | –
Nc1cc(NC(=O)c2c[nH]c3ccccc3c2=O)cc(C(F)(F)F)c1 [Compound 429, N-[3-amino-5-(trifluoromethyl)phenyl]-4-oxo-1H-quinoline-3-carboxamide] | 25 to 100% | –

— US8802700B2 (Vertex Pharmaceuticals Incorporated, priority 2010, dated 2014)
